Measurements taken from patent publication US20240307294A1, “Topical Composition and Carrier for Administration of Pharmaceutically or Cosmetically Active Ingredients” (EMOLLIVET AB, priority 2013, published 2024).

Assay: Carrier dissolution capacity (admixing controlled amounts of active agent)
Type: physicochemical
Experimental: The dissolution capacity of different carriers was tested by admixing controlled amounts of active agent.

[1] = carrier Lipoid S100 0.0 / Urea 2.0 / Ethanol 98.0 % w/w
[2] = carrier Lipoid S100 5.0 / Urea 2.0 / Ethanol 93.0 % w/w
[3] = carrier Lipoid S100 10.0 / Urea 2.0 / Ethanol 88.0 % w/w
[4] = carrier Lipoid S100 20.0 / Urea 2.0 / Ethanol 78.0 % w/w
[5] = carrier Lipoid S100 30.0 / Urea 2.0 / Ethanol 68.0 % w/w

Molecule | Highest complete dissolution [1] [% w/w] | Lowest incomplete dissolution [1] [% w/w] | Highest complete dissolution (carrier Lipoid S100 3.4 / Urea 2.0 / Ethanol 94.7 % w/w) [% w/w] | Highest complete dissolution [2] [% w/w] | Highest complete dissolution [3] [% w/w] | Highest complete dissolution [4] [% w/w] | Highest complete dissolution [5] [% w/w] | Lowest incomplete dissolution (carrier Lipoid S100 5.0 / Urea 1.0 / Ethanol 94.0 % w/w) [% w/w] | Lowest incomplete dissolution [2] [% w/w] | Lowest incomplete dissolution [3] [% w/w] | Lowest incomplete dissolution [4] [% w/w] | Lowest incomplete dissolution [5] [% w/w] | Highest complete dissolution (carrier Lipoid S100 49.5 / Urea 1.0 / Ethanol 49.5 % w/w) [% w/w]
Calcium pantothenate | 0.27 | 0.40 | 0.41 | 0.50 | 0.98 | 1.81 | 3.17 | – | – | – | – | – | –
C[C@]12CCC(=O)C=C1CC[C@@H]1[C@@H]2[C@@H](O)C[C@@]2(C)[C@H]1CC[C@]2(O)C(=O)CO [Hydrocortisone] | 2.09 | 2.25 | – | 2.22 | 2.48 | 2.82 | 3.19 | 2.28 | 2.37 | 2.83 | 3.22 | 3.50 | 2.89
